What was measured:
[1] = cited from earlier work
[2] = Storage stability of crystalline form A (HPLC); format: physicochemical
Method: (§1) Column: 4.6×250 mm 5 μm C18 column; flow rate: 2 ml/min; injection volume: 10 μl; column temperature: 35° C.; detection wavelength: 217 nm; mobile phase: acetonitrile/water/trifluoroacetic acid; Elution condition: water (60%): acetonitrile (40%): trifluoroacetic acid (0.1%); detection limit: 10 ng.
[…] […] Therefore, crystalline form A of compound I prepared by the method of the present invention has unique stability.

[3] = Stability comparison at 40° C. (HPLC purity); format: physicochemical
Method: as §1
The purity mentioned in the following Examples is HPLC purity.
Compound I from example 2, example 3 and example 4 were obtained, and subjected to stability test at 40° C., respectively. […] Therefore, crystalline form A of compound I prepared by the method of the present invention has unique stability.

[4] = cited from earlier work; remark: listed apart in the source

SMILES: CCCCC[C@H](O)/C=C/[C@@H]1[C@H]2C/C(=C/CCCC(=O)O)O[C@H]2C[C@H]1O [Epoprostenol]
- Half-life in circulation [1]: 3 to 5 min

SMILES: CCCCC[C@H](O)CC[C@@H]1[C@H]2Cc3cccc(OCC(=O)O)c3C[C@H]2C[C@H]1O [Example 4]
- Degradation on storage (HPLC) ([2]; stored at 0° C. for 12 months): did not degrade at all
- Degradation on storage (HPLC) ([2]; stored at 20° C. for 6 months): did not degrade at all
- Degradation on storage (HPLC) ([2]; stored at 40° C. for 2 months): did not degrade at all
- Purity at 0 day (40° C.) ([3]; 0 day): 99.90%
- Purity at 10 day (40° C.) ([3]; 10 day): 99.91%
- Purity at 30 day (40° C.) ([3]; 30 day): 99.89%
- Purity at 90 day (40° C.) ([3]; 90 day): 99.88%

SMILES: CCCCC[C@H](O)CC[C@@H]1[C@H]2Cc3cccc(OCC(=O)O)c3C[C@H]2C[C@H]1O [Treprostinil]
- Stability under physiological conditions [4]: stable under physiological conditions

— US9278903B2, “Crystal form of prostaglandin analogue, and preparation method and use thereof” (Shanghai Techwell Biopharmaceutical Co., Ltd., priority 2012, dated 2016)
